Measurements published in US9359281B2, “Enantiomers of 2-hydroxy derivatives of fatty acids” (UNIVERSITAT DE LES ILLES BALEARS, priority 2011, dated 2016).
Where “and” joins values, the source holds several entries; their conditions need not be identical. Equal values may be shown once.

Assays:
HepG2 cells = test: Cell growth inhibition, HepG2; assay type: cell-based, human; design: key to Effect (anti-proliferation effect): +: inhibition of cell growth; −: absence of effect; conditions: for IC50: HepG2, sodium salt form
From the text: (§1) At this respect, concentrations which inhibit growth of tumour cells (IC50) are lower for the enantiomer S ([−]) in all studied tumour lines (Table 5). […] In all of the cases, the molecules employed were in the form of sodium salt.

BXPC3 cells = test: Cell growth inhibition, BXPC3; assay type: cell-based, human; design: key to Effect (anti-proliferation effect): +: inhibition of cell growth; −: absence of effect; conditions: for IC50: BXPC3, sodium salt form
From the text: as §1

PC3 cells = test: Cell growth inhibition, PC3; assay type: cell-based, human; design: key to Effect (anti-proliferation effect): +: inhibition of cell growth; −: absence of effect; conditions: for IC50: PC3, sodium salt form
From the text: as §1

U937 cells = test: Cell growth inhibition, U937; assay type: cell-based, human; design: key to Effect (anti-proliferation effect): +: inhibition of cell growth; −: absence of effect; conditions: for IC50: U937, sodium salt form
From the text: as §1

MRC-5 cells = test: Cell growth inhibition, MRC-5; assay type: cell-based, human; design: key to Effect (anti-proliferation effect): +: inhibition of cell growth; −: absence of effect; conditions: for IC50: MRC-5 non tumor fibroblast, sodium salt form
From the text: as §1

Jurkat cells = test: Cell growth inhibition, Jurkat; assay type: cell-based, human; design: key to Effect (anti-proliferation effect): +: inhibition of cell growth; −: absence of effect; conditions: for IC50: sodium salt form
From the text: as §1

[1] = Triglyceride and total cholesterol levels in SHR rats; assay type: in vivo; conditions: 600 mg/kg every 12 h, orally; for plasmatic TG levels after treatment: 2 weeks, basal 108 mg/dl; for CHOt levels after treatment: 15 days, basal 73 mg/dl
Protocol: D. Effects on cholesterol and triglyceride levels: SHR rats were treated with 2OHOA racemic (+/−) and its optic isomers [−]2OHOA and [+]2OHOA (600 mg/kg every 12 h, 15 days, orally). […] Values of average±EEM seric levels of lipids expressed as mg/dl (ordinate axis; n=6) are shown.
(§2) What is more, we studied the effect of the isomers above on arterial pressure, body weight, and the level of cholesterol, triglycerides and glycemia (glucose in plasma) in SHR rats SHR (FIGS. 8B, 8C and 8D and 8E). […] Similarly, during 1 and 5 days of treatment, rats treated with the racemic loosed 11 gram of weight (approximately a 3% of their body weight), whereas animals of the group treated with enantiomer [−]2OHOA loosed 21 grams and animals of the group treated with enantiomer [+]2OHOA only loosed 7 grams of weight. On the other hand, a higher effect of enantiomer [+]2OHOA in the reduction of triglyceride (TG) and total cholesterol (CHOt) levels was observed (FIG. 8D) At this respect, plasmatic basal levels of TG in SHR rats are of 108 mg/dl and were reduced to 56 mg/dl after 2 weeks treatment […]. On the other hand, treatment with enantiomer [+]2OHOA inducted a reduction of plasmatic TG levels to 47 mg/dl, whereas enantiomer [−]2OHOA only produced a modest reduction to 81 mg/dl. In parallel, levels of CHOt were reduced from 73 mg/dl to 43 mg/dl (racemic), 36 mg/dl (enantiomer [+]2OHOA) and 59 mg/dl (enantiomer [−]2OHOA), respectively.

U87 cells = test: Cell growth inhibition, U87; assay type: cell-based, human; design: key to Effect (anti-proliferation effect): +: inhibition of cell growth; −: absence of effect; conditions: for IC50: U87, sodium salt form
From the text: as §1

IMR90 cells = test: Cell growth inhibition, IMR90; assay type: cell-based, human; design: key to Effect (anti-proliferation effect): +: inhibition of cell growth; −: absence of effect; conditions: for IC50: IMR90 non tumor fibroblast, sodium salt form
From the text: as §1

[2] = test system: human lung cancer cells (A549); test: Volume of tumours derived from human lung cancer cells (A549) in mice; assay type: in vivo; conditions: 600 mg/kg·day, 15 days, orally
Protocol: A. Effect on the volume of tumours derived from human lung cancer cells (A549): immuno-depressed mice were infected with human lung cancer cells and 7 days later (when the tumours were observable), treatments started with vehicle (control), 2OHOA racemic (+/−), and optic isomers [−]2OHOA and [+]2OHOA (600 mg/kg·day, 15 days, orally). The bars correspond to values of an average±EEM (n=3-5) of the increase in volume (mm^3) of the tumours (n=6).
On the other hand, we investigated the antitumoral activity of these compounds in different types of human cancer (see Tables 2, 4 and 5). […] Furthermore, the activity of these enantiomers was proven against a vast variety of human cancers of different nature, since it can be stated that enantiomers [−] of 2-hydroxylated fatty acids have a high potency in the treatment of any type of cancer.

Body weight of SHR rats = assay type: in vivo; conditions: 600 mg/kg·day, 5 days, orally
Protocol: C. Effect on body weight: SHR rats were treated with 2OHOA racemic (+/−) and its optic isomers [−]2OHOA and [+]2OHOA (600 mg/kg·day, 5 days, orally). […] Values of average±EEM body weight (abscises axis, n=6) are shown.
as §2

SH-SY5Y cells = test: Cell growth inhibition, SH-SY5Y; assay type: cell-based, human; design: key to Effect (anti-proliferation effect): +: inhibition of cell growth; −: absence of effect; conditions: for IC50: SH-SY5Y, sodium salt form
From the text: as §1

SF767 cells = test: Cell growth inhibition, SF767; assay type: cell-based, human; design: key to Effect (anti-proliferation effect): +: inhibition of cell growth; −: absence of effect; conditions: for IC50: SF767, sodium salt form
From the text: as §1

[3] = test system: human glioma (SF767) cells; test: Volume of human glioma (SF767) tumours in immuno-depressed mice; assay type: in vivo; conditions: for Effect: variation in the size of the tumour compared with untreated animals: 15 days; for decrease in the volume of the tumour: 200 mg/kg, 15 days orally
From the text: This example recounts the study carried out on immuno-depressed mice infected with human glioma (SF767) cells and treated for 15 days (orally) with the indicated dose (Table 3).

A549 cells = test: Cell growth inhibition, A549; assay type: cell-based, human; design: key to Effect (anti-proliferation effect): +: inhibition of cell growth; −: absence of effect
From the text: as §1

[4] = Plasmatic glucose levels in SHR rats; assay type: in vivo; conditions: 600 mg/kg, 12 h, 15 days, by mouth
Protocol: E. Effects on […] (plasmatic glucose levels): SHR rats were treated with vehicle (control), racemic 2OHOA and their optical isomers [−] 2OHOA and [+]2OHOA (600 mg/kg, 12 h, 15 days, by mouth). The racemic compound and the [−]
as §2

Structure (SMILES) | IC50 (HepG2 cells) | IC50 (BXPC3 cells) | IC50 (PC3 cells) | IC50 (U937 cells) | IC50 (MRC-5 cells) | IC50 (Jurkat cells) | plasmatic TG levels after treatment ([1]; 600 mg/kg) | CHOt levels after treatment ([1]; 600 mg/kg) | IC50 (U87 cells) | IC50 (IMR90 cells) | volume of tumours derived from A549 cells [2] | loss of body weight (Body weight of SHR rats; 600 mg/kg) | Effect: variation in the size of the tumour compared with untreated animals ([3]; 50 mg/kg orally) | Effect: variation in the size of the tumour compared with untreated animals ([3]; 75 mg/kg orally) | Effect: variation in the size of the tumour compared with untreated animals ([3]; 100 mg/kg orally) | Effect: variation in the size of the tumour compared with untreated animals ([3]; 150 mg/kg orally) | Effect: variation in the size of the tumour compared with untreated animals ([3]; 200 mg/kg orally) | Effect: variation in the size of the tumour compared with untreated animals ([3]; 400 mg/kg orally) | Effect: variation in the size of the tumour compared with untreated animals ([3]; 600 mg/kg orally) | plasma glucose levels (glycemia) [4] | also measured
CCCCCCCC/C=C\CCCCCCC(O)C(=O)O (stereo not shown) [[−]2OHOA] [[−] HOOC—HOCH—(CH2)6—(CH═CH—CH2)1—(CH2)6—CH3] | 32.9 µM | 61.8 µM | 87 µM | 136 µM | > 5000 µM | 35.7 µM | 81 mg/dL | 59 mg/dL | 53.5 µM | > 5000 µM | significant reductions compared with all the other treatments | 21 gram | −35% | −54% | −65% | −78% | −89% | −91% | −86% | significant reductions | Effect (anti-proliferation effect) (HepG2 cells; HepG2): +; Effect (anti-proliferation effect) (BXPC3 cells; BXPC3): +; Effect (anti-proliferation effect) (PC3 cells; PC3): +; Effect (anti-proliferation effect) (U937 cells; U937): +; Effect (anti-proliferation effect) (MRC-5 cells; MRC-5): −; Effect (anti-proliferation effect) (Jurkat cells): +; Effect (anti-proliferation effect) (U87 cells; U87): +; Effect (anti-proliferation effect) (IMR90 cells; IMR90): −; IC50 (SH-SY5Y cells): 64.4 µM; Effect (anti-proliferation effect) (SH-SY5Y cells; SH-SYSY): +; Effect (anti-proliferation effect) (SF767 cells; SF767): +; IC50 (SF767 cells): 102 µM; decrease in the volume of the tumour [3]: 89%; Effect (anti-proliferation effect) (A549 cells; A549): +; IC50 (A549 cells; A549, sodium salt form): 52.6 µM; IC50 (A549 cells; A549, sodium salt form, listed as [−]2OH18:1): 52.6 ± 9.5 µM
CCCCCCCC/C=C\CCCCCCC(O)C(=O)O (racemic) [2OHOA, 2-hydroxyoleic acid] |  |  |  |  |  |  |  |  |  |  | significant reductions |  | +2% | −7% | −8% | −17% | −23% | −39% | −37% | significant reductions | IC50 (HepG2 cells; Homo sapiens): 41.4 µM; IC50 (BXPC3 cells; Homo sapiens, BXPC-3): 98.3 µM; IC50 (PC3 cells; Homo sapiens, PC-3): 138 µM; IC50 (U937 cells; Homo sapiens, U-937): 183 µM; IC50 (MRC-5 cells; Homo sapiens, MRC5): > 5000 µM; IC50 (Jurkat cells; Homo sapiens): 62.9 µM; CHOt levels after treatment [1]: 43 mg/dL; IC50 (U87 cells; Homo sapiens, U-87 MG): 81.6 µM; IC50 (IMR90 cells; Homo sapiens, IMR-90): > 5000 µM; loss of body weight (Body weight of SHR rats): 11 gram; loss of body weight as share of body weight (Body weight of SHR rats): ~3%; IC50 (SH-SY5Y cells; Homo sapiens): 119 µM; IC50 (SF767 cells; Homo sapiens): 215 µM; decrease in the volume of the tumour [3]: 23%; IC50 (A549 cells; Homo sapiens, A549, A549, sodium salt form): 94.1 ± 8.8 µM
CCCCCCCC/C=C\CCCCCCC(O)C(=O)O (stereo not shown) [[+]2OHOA] [[+]HOOC—HOCH—(CH2)6—(CH═CH—CH2)1—(CH2)6—CH3] | 76.7 µM | 154 µM | 233 µM | 214 µM | > 5000 µM | 97.2 µM | 56 mg/dL and 47 mg/dL | 36 mg/dL | 148 µM | > 5000 µM | no significant changes in the volume of tumours | 7 gram | −2% | +7% | −3% | +1% | −4% | −2% | +3% | reduction without statistical significance | IC50 (SH-SY5Y cells): 193 µM; IC50 (SF767 cells): 304 µM; activity on tumour volume after 15 days of treatment ([3]; indicated doses (50-600 mg/kg), orally): showed no activity; IC50 (A549 cells; A549, sodium salt form): 133 µM; IC50 (A549 cells; A549, sodium salt form, listed as [+]2OH18:1): 133 ± 9.8 µM
